As usually defined, the IC50 is the concentration at which inhibition is half-maximal. Low values mean inhibition by little substance, high ones a need for much substance.

Read-outs that look alike come from different tables or passages of the source.

Experiment [1] relates to MIA PaCa-2 pancreatic cancer cell line. In words: Cell proliferation assay (DAPI). Type of experiment: cell-based. Conditions: Homo sapiens; for inhibition at 10 µM: read-out: % Inhibition of cell proliferation, MIA PaCa-2 % inh. The procedure:
Cell lines: Human NSCLC cells NCI-H1975 and NCI-H1299, and tumor-derived pancreatic cancer cell lines Panc-1, MIA-PACA2, and BxPC3, were all purchased from American Type Culture Collection and grown in complete RPMI medium (BxPC3, NCI-H1975 and NCI-H1299) or DMEM-High Glucose (Panc1 and MIA-PaCa-2), supplemented with penicillin (100 U/mL), streptomycin (100 μg/mL), and 10% heat-inactivated FBS at 37° C. in a humidified incubator with 5% CO2.
Method: Cells were plated at 2000 to 5000 cells/well density in 96-wells plate and cultured ON. Small molecules to be tested were added to the cells in the final concentration of 10 µM in the presence of 0.3% DMSO and 10% FBS, and incubated for 2-4 days at 37° C. in a humidified incubator with 5% CO2. For IC50 value determination, serial dilutions of compounds were added to cells under the same conditions.
Assay: At the end of the incubation period, cell cultures were fixed with a 50-50 mixture (v/v) acetone-methanol for 10 minutes at −20° C., followed by rehydration in PBS for 10 minutes at room temperature. DNA total content was determined by staining cells with DAPI (1 ug/ml) in PBS for 10 minutes at room temperature, followed by 3 washes with PBS. After staining, DAPI fluorescence was recorded (358 nm excitation/461 nm emission) with the 96-well plate reader Molecular Devices Spectramax M3; degree of small molecule-dependent proliferation inhibition was calculated from raw data.

For the next experiment, the target named is T1, KRas G12D mutant (Homo sapiens, UniProt P01116, G12D).
T1 construct: fused on or other part: His tag, used for capture on nickel-coated plates
In words: Ras GTP binding domain inhibition assay (Cy3-GTP/Cy5-GTP competition). Conditions: at 20 μM. The essentials:
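His-tagged Ras immobilized on nickel-coated wells in Tris buffer (pH 7.4 or 7.0) with 1 mM MgCl2, 1 mM DTT, 1% DMSO. Compound (20 μM, or serial dilution for IC50) incubated 3 hours at room temperature, ± Sos (residues 556-1049) in final hour. Bound 100 nM Cy3-/Cy5-GTP read after 45 minutes and washing.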

The next experiment concerns the target Rac-1 (Homo sapiens, UniProt P63000). The experiment is described as above. The essentials: (§1)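 First, His-tagged protein is coated on nickel wells overnight at 4 °C. Next, compound (20 μM single point or serial dilution) is added for 3 h at room temperature, with or without Sos exchange factor in the last hour. Finally, 100 nM labelled GTP binds for 45 min and retained signal is measured.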

A further experiment addresses Rho-A (Homo sapiens, UniProt P61586). The description is as above. In short, it runs like this: as §1
The mark [2] stands for this setting: with SOS, read-out: KRas G12D mutant + SOS: % inh.
[3] abbreviates: without SOS, read-out: KRas G12D mutant: % inh.
Setting [4] is: with SOS, read-out: Rac-1 + SOS: % inh.
Where [5] appears, read: without SOS, read-out: Rac-1: % inh.
The mark [6] stands for this setting: with SOS, read-out: Rho-A + SOS: % inh.
The mark [7] stands for this setting: without SOS, read-out: Rho-A: % inh.

For `CN(Cc1ccccc1)Cc1nc(-c2ccccn2)nc(O)c1O`, in experiment [1] (2-4 days, MIA PaCa-2), the inhibition at 10 µM amounted to 0%.

In the case of `Cn1ccc(-c2sc3nc(-c4nccn4C)nc(N[C@@H]4CC[C@H](O)C4)c3c2-c2ccccc2)n1` (racemic) [drawing 644], in experiment [1] (MIA PaCa-2 (Table 5A)), the inhibition at 10 µM was 26 to 50% and the IC50 is > 1000 nM.

As to `COc1cccc(-c2csc3c(O)nc(-c4nccn4C)nc23)c1Cl` [drawing 528], the IC50 in experiment [1] (MIA PaCa-2) is > 1000 nM. Besides, the inhibition at 10 µM in experiment [1] (2-4 days, MIA PaCa-2) lay within 76 to 100%.

With `Cn1ccnc1-c1nc(O)c2scc(-c3ccccn3)c2n1` [drawing 529], the inhibition at 10 µM in experiment [1] (2-4 days, MIA PaCa-2) lay in the range of 76 to 100%.

`Oc1nc(-c2ncc3n2CCCC3)nc2c(-c3ccccn3)csc12` [drawing 530]: in experiment [1] (2-4 days, MIA PaCa-2), the inhibition at 10 µM is 76 to 100%.

With `Oc1nc(-c2cn3ccccc3n2)nc2c(-c3ccccn3)csc12` [drawing 531], the inhibition at 10 µM in experiment [1] (2-4 days, MIA PaCa-2) fell in the range of 76 to 100%.

As for `COCCn1ccnc1-c1nc(O)c2scc(-c3ccccn3)c2n1` [drawing 532], the inhibition at 10 µM in experiment [1] (2-4 days, MIA PaCa-2) lay within 76 to 100%.

As for `Cc1cc(Cn2ccnc2-c2nc(O)c3scc(-c4ccccn4)c3n2)on1` [drawing 533], the inhibition at 10 µM in experiment [1] (2-4 days, MIA PaCa-2) was 76 to 100%.

For `Oc1nc(-c2nccn2Cc2ccccn2)nc2c(-c3ccccn3)csc12` [drawing 534], in experiment [1] (2-4 days, MIA PaCa-2), the inhibition at 10 µM fell in the range of 76 to 100%.

As for `COc1cccc(Cn2ccnc2-c2nc(O)c3scc(-c4ccccn4)c3n2)c1` [drawing 535], in experiment [1] (2-4 days, MIA PaCa-2), the inhibition at 10 µM lay in the range of 76 to 100%.

Take `Cc1cnc(-c2nc(O)c3scc(-c4ccccn4)c3n2)n1C` [drawing 536]: the inhibition at 10 µM in experiment [1] (2-4 days, MIA PaCa-2) is 76 to 100%.

For `Cc1cn(C)c(-c2nc(O)c3scc(-c4ccccn4)c3n2)n1` [drawing 537], the inhibition at 10 µM in experiment [1] (2-4 days, MIA PaCa-2) was in the range of 76 to 100%.

As for `Oc1nc(-c2ncc3ccccn23)nc2c(-c3ccccn3)csc12` [drawing 538], the inhibition at 10 µM in experiment [1] (2-4 days, MIA PaCa-2) fell in the range of 76 to 100%.

For the molecule `Oc1nc(-c2cn3cccnc3n2)nc2c(-c3ccccn3)csc12` [drawing 539], the inhibition at 10 µM in experiment [1] (2-4 days, MIA PaCa-2) amounted to 0%.

Regarding `Oc1nc(-c2cn(-c3ccccc3)cn2)nc2c(-c3ccccn3)csc12` [drawing 540], the inhibition at 10 µM in experiment [1] (2-4 days, MIA PaCa-2) fell in the range of 76 to 100%.

`COc1ccc(Cn2cnc(-c3nc(O)c4scc(-c5ccccn5)c4n3)c2)cc1` [drawing 541]: the inhibition at 10 µM in experiment [1] (2-4 days, MIA PaCa-2) is 76 to 100%.

In the case of `COCCCN(C)c1nc(-c2nccn2C)nc2sc(-c3ccn(C)n3)c(-c3ccccc3)c12` [drawing 543], the IC50 in experiment [1] (MIA PaCa-2) was > 1000 nM. Moreover, the inhibition at 10 µM in experiment [1] (2-4 days, MIA PaCa-2) is 76 to 100%.

With `Cn1ccc(-c2sc3nc(-c4nccn4C)nc(NC4CCOCC4)c3c2-c2ccccc2)n1` [drawing 546], in experiment [1] (MIA PaCa-2), the IC50 was > 1000 nM. Also, the inhibition at 10 µM in experiment [1] (2-4 days, MIA PaCa-2) is 1 to 25%.

Regarding `Cn1ccc(-c2sc3nc(-c4nccn4C)nc(N4CCC5(CCOC5)C4)c3c2-c2ccccc2)n1` (centres unmarked) [drawing 551], the IC50 in experiment [1] (MIA PaCa-2) was > 1000 nM. Besides, the inhibition at 10 µM in experiment [1] (2-4 days, MIA PaCa-2) was in the range of 26 to 50%.

For the molecule `COC1CCN(c2nc(-c3nccn3C)nc3sc(-c4ccn(C)n4)c(-c4ccccc4)c23)CC1` [drawing 552], the IC50 in experiment [1] (MIA PaCa-2) is > 1000 nM. The inhibition at 10 µM in experiment [1] (2-4 days, MIA PaCa-2) lay in the range of 76 to 100%.

`COCCNC(=O)c1sc2nc(-c3nccn3C)nc(N[C@@H]3CC[C@H](OC)C3)c2c1-c1ccccc1` [drawing 1060]: the inhibition at 20 µM on KRas G12D mutant (setting [2]), at KRas G12D mutant (setting [3]), at Rac-1 (setting [4]), at Rac-1 (setting [5]), on Rho-A (setting [6]) and on Rho-A (setting [7]) was 76 to 100% throughout.

Turning to `CO[C@H]1CC[C@@H](Nc2nc(-c3nccn3C)nc3sc(C(=O)N4CCCC4)c(-c4ccccc4)c23)C1` [drawing 1061], the inhibition at 20 µM was 51 to 75% on KRas G12D mutant (setting [2]); 51 to 75% on KRas G12D mutant (setting [3]); 76 to 100% at Rac-1 (setting [4]); 76 to 100% at Rac-1 (setting [5]); 76 to 100% on Rho-A (setting [6]); 76 to 100% at Rho-A (setting [7]).

Consider `CO[C@H]1CC[C@@H](Nc2nc(-c3nccn3C)nc3sc(C(=O)N4CCOCC4)c(-c4ccccc4)c23)C1` [drawing 1062], for which the inhibition at 20 µM on KRas G12D mutant (setting [2]) was in the range of 51 to 75%; at KRas G12D mutant (setting [3]), 76 to 100%; on Rac-1 (setting [4]), 76 to 100%; on Rac-1 (setting [5]) it was 76 to 100%; on Rho-A (setting [6]), 76 to 100%; on Rho-A (setting [7]), 76 to 100%.

The record behind these values is patent publication US20250296938A1, “Compounds that Interact with the Ras Superfamily for the Treatment of Cancers, Inflammatory Diseases, Rasopathies, and Fibrotic Disease” (SHY Therapeutics, LLC, priority 2018, published 2025).
